In brackets after ≈: the same amount, converted by molar mass. Where two headings read alike, the source gives them in different places.
Assays:
Format in all cases: cell-based
[1] = system: Escherichia coli ATCC 25922; test: Minimum inhibitory concentration, broth micro-dilution (CLSI), E. coli; conditions: for MIC: Escherichia coli, ATCC25922, 22 h
[2] = system: Escherichia coli MC4100 harboring the IMP4213 (E. coli IMP); test: microbe, parasite or virus in culture; conditions: for MIC: Escherichia coli, 22 h; for MIC (μg/mL) E. coli IMP: E. coli MC4100 IMP4213, increased outer-membrane permeability
Summary of the method: (§1)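 CLSI broth microdilution in cation-adjusted Mueller Hinton Broth with 0.002% Tween-80; inoculum final OD600 0.0005, 22 hours at 35° C. Ten 2-fold dilutions starting at 4 μg/mL (protocol 2) or 0.5 μg/mL (protocol 3).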

[3] = system: Methicillin Resistant Staphylococcus aureus strain USA 300, NRS384; test: Minimum inhibitory concentration, broth micro-dilution (CLSI), S. aureus; conditions: for MIC: Staphylococcus aureus, MRSA / NRS 384 / USA300, 22 h
Summary of the method: as §1

[4] = E. coli ATCC 25922, 35° C., 22 hours, read-out: MIC (μg/mL) E. coli
[5] = read-out: MIC (μg/mL) E. coli IMP, E. coli MC4100 IMP4213, increased outer-membrane permeability, 35° C., 22 hours
[6] = MRSA USA 300 NRS384, 35° C., 22 hours, read-out: MIC (μg/mL) S. aureus
[7] = read-out: MIC (μg/mL) E. coli, E. coli ATCC 25922, 35° C., 22 hours
[8] = read-out: MIC (μg/mL) S. aureus, MRSA USA 300 NRS384, 35° C., 22 hours
[9] = E. coli ATCC 25922, 35° C., 22 hours
[10] = MRSA USA 300 NRS384, 35° C., 22 hours

| SMILES | MIC [1, 4] [µg/mL] | MIC [2, 5] [µg/mL] | MIC [3, 6] [µg/mL] | further results |
| --- | --- | --- | --- | --- |
| CCCCCCCCCCN(CCC(=O)N[C@@H](CCCCNC(=O)OC(C)(C)C)C(=O)N(C)[C@@H]1C(=O)N[C@@H](C)C(=O)N[C@H](C(=O)O)Cc2ccc(OC(=O)OC(C)(C)C)c(c2)-c2cc1ccc2OC1O[C@H](CO)[C@@H](O)[C@H](O)[C@H]1NC(=O)OC(C)(C)C)C(=O)OC(C)(C)C (stereo partly drawn) [Compound 516] | > 64 | > 4 | 2 (≈ 1.52 µM) | – |
| CCCCCCCCCC(=O)N[C@H](C(=O)N[C@@H](CCN)C(=O)N(C)[C@@H]1C(=O)N[C@@H](C)C(=O)N[C@H](C(=O)NCC#N)Cc2ccc(OCCN)c(c2)-c2cc1ccc2OCCN)C(C)O (single isomer, unassigned) [Compound 357-P1] | – | 0.5 (≈ 0.56 µM) | – | MIC [1, 7]: 64 µg/mL (≈ 71.7 µM); MIC [3, 8]: 0.5 µg/mL (≈ 0.56 µM) |
| CCCCc1ccc(-c2ncc(C(=O)N[C@@H](CCCN)C(=O)N(C)[C@@H]3C(=O)N[C@@H](C)C(=O)N[C@H](C(=O)NCC#N)Cc4ccc(OCCN)c(c4)-c4cc3ccc4OCCN)c(C)n2)cc1 [Compound 154] | 0.25 (≈ 0.277 µM) | 0.0059 (≈ 0.00653 µM) | 0.012 (≈ 0.0133 µM) | – |
| CCCCCCc1ccc(C(=O)N[C@@H](CCN[C@@H]2[C@@H](O)[C@H](O)[C@@H](CO)O[C@@H]2O)C(=O)N(C)[C@@H]2C(=O)N[C@@H](C)C(=O)N[C@H](C(=O)NCC#N)Cc3ccc(OCCN)c(c3)-c3cc2ccc3OCCN)c(C)c1 [Compound 518] | – | 0.063 (≈ 0.0629 µM) | – | MIC [1, 7]: 4 µg/mL (≈ 3.99 µM); MIC [3, 8]: 0.38 µg/mL (≈ 0.379 µM) |
| CCCCc1ccc(-c2ccc(C(=O)N[C@@H](CCC(=O)NCC(O)CO)C(=O)N(C)[C@@H]3C(=O)N[C@@H](C)C(=O)N[C@H](C(=O)NCC#N)Cc4ccc(OCCN)c(c4)-c4cc3ccc4OCCN)cc2)cc1 (stereo partly drawn) [Compound 517] | 6 (≈ 6.15 µM) | 0.19 (≈ 0.195 µM) | 0.38 (≈ 0.389 µM) | – |
| Cc1cc(C2CC2c2ccccc2)ccc1C(=O)N[C@@H](CCN)C(=O)N(C)[C@@H]1C(=O)N[C@@H](C)C(=O)N[C@H](C(=O)NCC#N)Cc2ccc(OCCN)c(c2)-c2cc1ccc2OCCN (mixture of isomers) [Compound 439] | – | – | – | MIC (μg/mL) E. coli [1, 9]: 0.5 µg/mL; MIC (μg/mL) E. coli IMP ([2]; 35° C., 22 hours): 0.0078 µg/mL; MIC (μg/mL) S. aureus [3, 10]: 0.047 µg/mL |
| CCCCCCCCNC(=O)N[C@@H](CCN)C(=O)N(C)[C@@H]1C(=O)N[C@@H](C)C(=O)N[C@H](C(=O)NCC#N)Cc2ccc(OCCN)c(c2)-c2cc1ccc2OCCN [Compound 402] | 32 (≈ 40.4 µM) | 0.19 (≈ 0.24 µM) | 0.38 (≈ 0.479 µM) | – |
| CCCCCCCCc1ccc(C(=O)N[C@@H](CCC(N)=O)C(=O)N(C)[C@@H]2C(=O)N[C@@H](C)C(=O)N[C@H](C(=O)NCC#N)Cc3ccc(OCCN)c(c3)-c3cc2ccc3OCCN)c(C)c1 [Compound 247] | 2 (≈ 2.23 µM) | 0.094 (≈ 0.105 µM) | 0.094 (≈ 0.105 µM) | – |
| CCCCc1ccc(C(=O)N[C@H](CCCCN)CC(=O)N(C)[C@@H]2C(=O)N[C@@H](C)C(=O)N[C@H](C(=O)NCC#N)Cc3ccc(OCCN)c(c3)-c3cc2ccc3OCCN)c(C)c1 [Compound 510] | > 64 | > 4 | 1.5 (≈ 1.76 µM) | – |
| Cc1c(C(=O)N[C@@H](CCN)C(=O)N(C)[C@@H]2C(=O)N[C@@H](C)C(=O)N[C@H](C(=O)NCC#N)Cc3ccc(OCCN)c(c3)-c3cc2ccc3OCCN)cnn1-c1ccc(CC(C)C)cc1 [Compound 444] | 3 (≈ 3.42 µM) | 0.031 (≈ 0.0353 µM) | 0.094 (≈ 0.107 µM) | – |
| C[C@@H]1NC(=O)[C@@H](N(C)C(=O)[C@H](CCN)NC(=O)c2ccc(OCC(C)(C)C)cc2Cl)c2ccc(OCCN)c(c2)-c2cc(ccc2OCCN)C[C@@H](C(=O)NCC#N)NC1=O [Compound 279] | 0.5 (≈ 0.58 µM) | 0.02 (≈ 0.0232 µM) | 0.13 (≈ 0.151 µM) | – |
| Cc1cc(-c2ccc(CC(C)C)cc2)ccc1C(=O)N[C@@H](CCC(N)=O)C(=O)N(C)[C@@H]1C(=O)N[C@@H](C)C(=O)N[C@H](C(=O)NCC#N)Cc2ccc(OCCN)c(c2)-c2cc1ccc2OCCN [Compound 248] | 1 (≈ 1.09 µM) | 0.094 (≈ 0.103 µM) | 0.19 (≈ 0.207 µM) | – |
| CCCCCCCCCCN(CCN)CCC(=O)N(C)[C@@H]1C(=O)N[C@@H](C)C(=O)N[C@H](C(=O)NCC#N)Cc2ccc(OCCN)c(c2)-c2cc1ccc2OCCN [Compound 452] | – | 2 (≈ 2.53 µM) | – | MIC [1, 7]: 64 µg/mL (≈ 80.8 µM); MIC [3, 8]: 0.19 µg/mL (≈ 0.24 µM) |
| CCCCCCCOc1ccc(C(=O)N[C@@H](CCN)C(=O)N(C)[C@@H]2C(=O)N[C@@H](C)C(=O)N[C@H](C(=O)NCC#N)Cc3ccc(OCCN)c(c3)-c3cc2ccc3OCCN)c(C)c1C [Compound 294] | 0.25 (≈ 0.283 µM) | 0.0078 (≈ 0.00882 µM) | 0.063 (≈ 0.0713 µM) | – |
| C=CCC(C)(C)COc1ccc(C(=O)N[C@@H](CCN)C(=O)N(C)[C@@H]2C(=O)N[C@@H](C)C(=O)N[C@H](C(=O)NCC#N)Cc3ccc(OCCN)c(c3)-c3cc2ccc3OCCN)c(C)c1 [Compound 285] | 0.75 (≈ 0.864 µM) | 0.0078 (≈ 0.00899 µM) | 0.063 (≈ 0.0726 µM) | – |
| CCCCCCCCCCCNC(=O)C(CCN)C(=O)N(C)[C@@H]1C(=O)N[C@@H](C)C(=O)N[C@H](C(=O)NCC#N)Cc2ccc(OCCN)c(c2)-c2cc1ccc2OCCN (single isomer, unassigned) [Compound 497-P2] | – | – | – | MIC (μg/mL) E. coli [1, 9]: 24 µg/mL (≈ 29.3 µM); MIC (μg/mL) E. coli IMP ([2]; 35° C., 22 hours): 0.38 µg/mL (≈ 0.463 µM); MIC (μg/mL) S. aureus [3, 10]: 1 µg/mL (≈ 1.22 µM) |
| CCCCCCCc1ccc(C(=O)NC(CCNC)C(=O)N(C)[C@@H]2C(=O)N[C@@H](C)C(=O)N[C@H](C(=O)NCC#N)Cc3ccc(OCCN)c(c3)-c3cc2ccc3OCCN)c(C)c1 (single isomer, unassigned) [Compound 490-P2] | – | – | – | MIC (μg/mL) E. coli [1, 9]: 8 µg/mL (≈ 9.22 µM); MIC (μg/mL) E. coli IMP ([2]; 35° C., 22 hours): >0.13 µg/mL; MIC (μg/mL) S. aureus [3, 10]: >0.50 µg/mL |
| CCCCCCCc1ccc(C(=O)NC(CCNC)C(=O)N(C)[C@@H]2C(=O)N[C@@H](C)C(=O)N[C@H](C(=O)NCC#N)Cc3ccc(OCCN)c(c3)-c3cc2ccc3OCCN)c(C)c1 (single isomer, unassigned) [Compound 490-P1] | – | 0.068 (≈ 0.0783 µM) | – | MIC (μg/mL) E. coli [1, 9]: 0.75 µg/mL (≈ 0.864 µM); MIC (μg/mL) S. aureus [3, 10]: 0.073 µg/mL (≈ 0.0841 µM) |
| CCCCCCCCCCCC(=O)N[C@@H](CO)C(=O)N(C)[C@@H]1C(=O)N[C@@H](C)C(=O)N[C@H](C(=O)N[C@H](C#N)CC)Cc2ccc(OCCN)c(c2)-c2cc1ccc2OCCN [Compound 419] | – | – | – | MIC ([1]; read-out: MIC (μg/mL) E. coli): 32 µg/mL (≈ 38.3 µM); MIC ([2]; read-out: MIC (μg/mL) E. coli IMP): 0.75 µg/mL (≈ 0.898 µM); MIC ([3]; read-out: MIC (μg/mL) S. aureus): 4 µg/mL (≈ 4.79 µM) |
| CCc1ccc(-c2ncc(C(=O)N[C@@H](CCN)C(=O)N(C)[C@@H]3C(=O)N[C@@H](C)C(=O)N[C@H](C(=O)NCC#N)Cc4ccc(O)c(c4)-c4cc3ccc4OCCN)c(C)n2)cc1 [Compound 505] | 2 (≈ 2.44 µM) | 0.016 (≈ 0.0195 µM) | 0.25 (≈ 0.305 µM) | – |
| CCCCc1ccc(NC(=O)CC(CCN)C(=O)N(C)[C@@H]2C(=O)N[C@@H](C)C(=O)N[C@H](C(=O)NCC#N)Cc3ccc(OCCN)c(c3)-c3cc2ccc3OCCN)c(C)c1 (mixture of isomers) [Compound 456] | 64 | 0.5 | 0.25 | – |
| Cc1cc(OCC2C[C@H]3CC[C@@H]2C3)ccc1C(=O)N[C@@H](CCN)C(=O)N(C)[C@@H]1C(=O)N[C@@H](C)C(=O)N[C@H](C(=O)NCC#N)Cc2ccc(OCCN)c(c2)-c2cc1ccc2OCCN (stereo partly drawn) [Compound 287] | 0.38 (≈ 0.432 µM) | 0.0078 (≈ 0.00886 µM) | 0.094 (≈ 0.107 µM) | – |
| CCCCCCc1ccc(C(=O)N[C@@H](CCNC=N)C(=O)N(C)[C@@H]2C(=O)N[C@@H](C)C(=O)N[C@H](C(=O)NCC#N)Cc3ccc(O)c(c3)-c3cc2ccc3O)c(C)c1 [Compound 467] | – | 1 (≈ 1.28 µM) | – | MIC [1, 7]: > 64 µg/mL; MIC [3, 8]: 1 µg/mL (≈ 1.28 µM) |
| CCCCCCCCc1ccc(C(=O)N[C@@H](CCN)C(=O)N(C)[C@@H]2C(=O)N[C@@H](C)C(=O)N[C@H](C(=O)NCC#N)Cc3ccc(OCCN)c(c3)-c3cc2ccc3OCCN)c(CCC(=O)O)c1 [Compound 447] | 2 (≈ 2.16 µM) | 0.012 (≈ 0.013 µM) | 0.13 (≈ 0.14 µM) | – |
| Cc1cc(OCC2CCC(F)(F)CC2)ccc1C(=O)N[C@@H](CCN)C(=O)N(C)[C@@H]1C(=O)N[C@@H](C)C(=O)N[C@H](C(=O)NCC#N)Cc2ccc(OCCN)c(c2)-c2cc1ccc2OCCN [Compound 278] | 4 (≈ 4.42 µM) | 0.13 (≈ 0.144 µM) | 0.5 (≈ 0.553 µM) | – |
| CCCCCCCCCNC(=O)CC(=O)N[C@@H](CCN)C(=O)N(C)[C@@H]1C(=O)N[C@@H](C)C(=O)N[C@H](C(=O)NCC#N)Cc2ccc(OCCN)c(c2)-c2cc1ccc2OCCN [Compound 361] | 16 (≈ 18.8 µM) | 0.13 (≈ 0.153 µM) | 0.13 (≈ 0.153 µM) | – |

Reference: US20180327367A1, “MACROCYCLIC BROAD SPECTRUM ANTIBIOTICS” (priority 2015, published 2018)
